Experimental data from article PMC8162069 (Chemical Science, 2020).

Molecular target: HepG (Trichoderma virens, UniProt G9NDK9)
Experiment: X-ray crystal structure
Assay type: binding
Details: active site of each subunit

HepG, sequence (G9NDK9 1-336): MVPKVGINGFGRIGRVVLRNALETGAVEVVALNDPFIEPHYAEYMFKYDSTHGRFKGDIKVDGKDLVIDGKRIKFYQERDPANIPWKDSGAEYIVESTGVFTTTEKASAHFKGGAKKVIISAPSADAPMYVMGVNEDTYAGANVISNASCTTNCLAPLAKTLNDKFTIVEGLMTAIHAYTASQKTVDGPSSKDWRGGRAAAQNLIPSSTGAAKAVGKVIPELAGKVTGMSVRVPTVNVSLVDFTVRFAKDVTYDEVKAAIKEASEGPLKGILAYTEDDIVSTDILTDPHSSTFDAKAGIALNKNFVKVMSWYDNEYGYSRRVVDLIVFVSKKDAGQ

SMILES: NC(=O)c1ccc[n+]([C@@H]2O[C@H](COP(=O)(O)OP(=O)(O)OC[C@H]3O[C@@H](n4cnc5c(N)ncnc54)[C@H](O)[C@@H]3O)[C@@H](O)[C@H]2O)c1 [NAD^+]
- X-ray crystal structure: Each subunit of the tetrameric HepG contains a NAD^+ cofactor
